Measured values as given in publication PMC3907537, “Evaluation of the Endothelin Receptor Antagonists Ambrisentan, Bosentan, Macitentan, and Sitaxsentan as Hepatobiliary Transporter Inhibitors and Substrates in Sandwich-Cultured Human Hepatocytes” (PLoS ONE, 2014).
Where two headings read alike, the source gives them in different places.

Key:
OATP1B3 = target: T1, OATP1B3 (Homo sapiens, UniProt Q9NPD5); assay: OATP1B3 inhibition, Fluo 3 uptake in transfected CHO cells; type: cell-based
T1 construct: host or cells: CHO
T1 sequence (Q9NPD5 1-702): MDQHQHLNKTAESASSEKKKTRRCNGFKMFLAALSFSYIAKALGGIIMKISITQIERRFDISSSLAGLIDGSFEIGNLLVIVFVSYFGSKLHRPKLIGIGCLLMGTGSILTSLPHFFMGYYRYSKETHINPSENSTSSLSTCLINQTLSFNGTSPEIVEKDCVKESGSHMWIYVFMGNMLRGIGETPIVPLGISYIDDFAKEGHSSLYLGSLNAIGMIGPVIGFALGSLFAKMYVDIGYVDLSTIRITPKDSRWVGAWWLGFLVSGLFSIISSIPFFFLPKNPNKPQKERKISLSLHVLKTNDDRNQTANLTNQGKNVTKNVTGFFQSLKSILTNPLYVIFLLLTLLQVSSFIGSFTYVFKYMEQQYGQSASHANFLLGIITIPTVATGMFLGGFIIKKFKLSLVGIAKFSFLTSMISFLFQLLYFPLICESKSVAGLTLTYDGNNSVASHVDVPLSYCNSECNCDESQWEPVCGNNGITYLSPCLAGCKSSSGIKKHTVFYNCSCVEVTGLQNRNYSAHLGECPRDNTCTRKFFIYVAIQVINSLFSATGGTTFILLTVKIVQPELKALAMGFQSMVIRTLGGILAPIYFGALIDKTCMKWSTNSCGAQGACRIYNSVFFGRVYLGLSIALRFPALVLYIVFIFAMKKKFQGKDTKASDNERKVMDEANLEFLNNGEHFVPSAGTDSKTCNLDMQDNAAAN
Text: (§1) Chinese Hamster Ovary (CHO) cells were obtained from Professor B. Stieger’s laboratory at University of Zurich, Zurich, Switzerland. Madin-Darby Canine Kidney strain II (MDCKII) cells were obtained from Nederlands Kanker Instituut (NKI), Amsterdam, Netherlands. NTCP-CHO cells, BSEP and MRP2 membrane vesicles were developed and validated at Solvo Biotechnology, Budaors, Hungary.
CHO cells, either wild type or transfected with the genes encoding human NTCP, OATP1B1 and OATP1B3, were maintained in Dulbecco’s Modification of Eagle’s Medium (DMEM) containing 1,000 mg/L D-glucose, L-glutamine, 25 mM HEPES buffer, 110 mg/L sodium pyruvate, 1% Penicillin/Streptomycin, 10% fetal bovine serum (FBS), 0.05 mg/mL L proline and 0.5 mg/mL of geneticin G-418. Cells were maintained in incubators set at 37°C, 90% humidity and 5% CO2. OATP1B1 and OATP1B3 over-expressing cells were seeded in BioCoat Poly-D-Lysine coated 96-well black cell culture plates with clear bottoms at a density of 1×10^5 cells/well. Sodium butyrate (10 mM) was added to the OATP1B1 and OATP1B3 cells once seeded to increase the protein expression level and the cells were grown to confluence overnight. The assay buffer contained 142 mM NaCl, 5 mM KCl, 1 mM KH2PO4, 1.2 mM MgSO4, 1.5 mM CaCl2, 5 mM Glucose and 12.5 mM HEPES (pH 7.4). After removal of the media and before adding test compounds, the cells were washed twice with 37°C assay buffer followed by a 0.5 h pre-incubation with assay buffer. […] Wells were analyzed for Fluo 3 fluorescence at an excitation of 485 nm and emission of 530 nm. Inhibition of NTCP was studied using similar conditions to those described for OATP1B1 and OATP1B3 except that inhibition of the uptake ^3H taurocholate into transfected CHO cells was monitored using radioactive scintillation counting.
All assays were performed in duplicate. […] IC50 values were calculated using non-linear fitting of % inhibition versus concentration to a sigmoidal curve with a variable Hill Coefficient using GraphPad Prism 5 (GraphPad Software Inc., San Diego, CA).

Pgp = target: T2, Pgp (Homo sapiens, UniProt P08183); assay: Pgp inhibition, Calcein AM in MDCKII cells; type: cell-based; conditions: mean ± SD of 3 independent studies in duplicate, tested 0.14–100 µM
T2 construct: host or cells: MDCKII
T2 sequence (P08183 whole entry): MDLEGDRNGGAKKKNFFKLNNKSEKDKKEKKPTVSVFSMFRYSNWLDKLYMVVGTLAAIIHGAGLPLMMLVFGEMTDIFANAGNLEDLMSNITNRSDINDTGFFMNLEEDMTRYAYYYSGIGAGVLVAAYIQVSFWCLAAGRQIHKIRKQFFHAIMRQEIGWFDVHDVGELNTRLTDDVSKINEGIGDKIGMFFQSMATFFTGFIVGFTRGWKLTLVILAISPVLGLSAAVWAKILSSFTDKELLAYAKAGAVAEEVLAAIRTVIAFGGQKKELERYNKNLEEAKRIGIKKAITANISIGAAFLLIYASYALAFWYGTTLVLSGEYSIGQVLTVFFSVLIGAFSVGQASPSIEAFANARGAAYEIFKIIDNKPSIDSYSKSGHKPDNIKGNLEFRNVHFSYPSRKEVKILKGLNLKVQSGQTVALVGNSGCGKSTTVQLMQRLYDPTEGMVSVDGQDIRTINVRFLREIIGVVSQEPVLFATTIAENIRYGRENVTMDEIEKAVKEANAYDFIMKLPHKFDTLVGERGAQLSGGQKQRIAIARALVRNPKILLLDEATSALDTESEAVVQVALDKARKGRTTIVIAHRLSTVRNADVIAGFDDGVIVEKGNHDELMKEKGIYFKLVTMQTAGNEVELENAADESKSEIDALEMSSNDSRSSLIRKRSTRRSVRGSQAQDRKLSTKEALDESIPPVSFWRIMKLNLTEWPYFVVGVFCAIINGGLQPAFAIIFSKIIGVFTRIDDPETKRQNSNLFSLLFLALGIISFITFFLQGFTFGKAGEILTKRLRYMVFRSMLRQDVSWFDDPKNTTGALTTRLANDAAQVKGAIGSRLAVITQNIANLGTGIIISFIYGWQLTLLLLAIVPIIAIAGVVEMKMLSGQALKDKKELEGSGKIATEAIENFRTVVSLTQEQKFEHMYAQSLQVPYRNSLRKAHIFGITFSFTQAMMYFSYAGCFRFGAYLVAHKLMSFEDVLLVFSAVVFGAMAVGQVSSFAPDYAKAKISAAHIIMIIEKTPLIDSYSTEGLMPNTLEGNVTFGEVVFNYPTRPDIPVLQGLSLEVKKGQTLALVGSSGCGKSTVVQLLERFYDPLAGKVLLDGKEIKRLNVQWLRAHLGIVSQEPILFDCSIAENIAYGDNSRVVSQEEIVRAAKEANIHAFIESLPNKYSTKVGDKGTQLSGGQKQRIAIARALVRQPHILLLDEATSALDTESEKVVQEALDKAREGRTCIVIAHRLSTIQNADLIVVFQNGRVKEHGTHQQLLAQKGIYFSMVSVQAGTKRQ
Text: as §1
MDCKII cells were maintained in DMEM with sodium pyruvate, Glutmax, 1% Penicillin/Streptomycin and 10% FBS in an incubator set at 37°C, 90% humidity and 5% CO2. MDCKII cells were seeded in 96-well black cell culture plates with clear bottoms at a density of 5×10^4 cells/well for Pgp and 2×10^4 cells/well for BCRP and grown to confluence. For the Pgp assay, test compounds were serially diluted in DMSO and then added into in cell culture medium (without FBS) containing 10 µM Calcein AM and incubated for 1 h. Following the removal of media containing Calcein AM and test compound, cells were washed five times with […] phosphate buffered saline containing magnesium and calcium (PBS). Wells were analyzed for Calcein AM fluorescence at an excitation of 494 nm and an emission of 517 nm. For the BCRP assay, test compounds were serially diluted DMSO and then spiked in cell culture medium (without FBS) containing 1 µM pheophorbide a (PhA) and incubated for 18 hours with MDCKII-ABCG2 cells. Following the removal of media containing PhA and test compound, cells were then washed five times with PBS. Wells were analyzed for PhA fluorescence at an excitation of 415 nm and an emission of 675 nm.
(§2) All assays were performed in duplicate. IC50 was defined as the test article concentration needed to inhibit the maximal transporter specific accumulation by 50%. IC50 values were calculated using non-linear fitting of % inhibition versus concentration to a sigmoidal curve with a variable Hill Coefficient using GraphPad Prism 5 (GraphPad Software Inc., San Diego, CA).

MRP2 = target: T3, MRP2 (Homo sapiens, UniProt Q92887); assay: MRP2 inhibition, estradiol-17-beta-glucuronide transport in Sf9 membrane vesicles; type: biochemical; conditions: E217βG 0.2 µM, single experiment in duplicate, tested 0.14–100 µM
T3 construct: purchased Solvo Biotechnology, Budaors, Hungary; host or cells: Sf9 insect cells (membrane vesicles)
T3 sequence (Q92887 whole entry): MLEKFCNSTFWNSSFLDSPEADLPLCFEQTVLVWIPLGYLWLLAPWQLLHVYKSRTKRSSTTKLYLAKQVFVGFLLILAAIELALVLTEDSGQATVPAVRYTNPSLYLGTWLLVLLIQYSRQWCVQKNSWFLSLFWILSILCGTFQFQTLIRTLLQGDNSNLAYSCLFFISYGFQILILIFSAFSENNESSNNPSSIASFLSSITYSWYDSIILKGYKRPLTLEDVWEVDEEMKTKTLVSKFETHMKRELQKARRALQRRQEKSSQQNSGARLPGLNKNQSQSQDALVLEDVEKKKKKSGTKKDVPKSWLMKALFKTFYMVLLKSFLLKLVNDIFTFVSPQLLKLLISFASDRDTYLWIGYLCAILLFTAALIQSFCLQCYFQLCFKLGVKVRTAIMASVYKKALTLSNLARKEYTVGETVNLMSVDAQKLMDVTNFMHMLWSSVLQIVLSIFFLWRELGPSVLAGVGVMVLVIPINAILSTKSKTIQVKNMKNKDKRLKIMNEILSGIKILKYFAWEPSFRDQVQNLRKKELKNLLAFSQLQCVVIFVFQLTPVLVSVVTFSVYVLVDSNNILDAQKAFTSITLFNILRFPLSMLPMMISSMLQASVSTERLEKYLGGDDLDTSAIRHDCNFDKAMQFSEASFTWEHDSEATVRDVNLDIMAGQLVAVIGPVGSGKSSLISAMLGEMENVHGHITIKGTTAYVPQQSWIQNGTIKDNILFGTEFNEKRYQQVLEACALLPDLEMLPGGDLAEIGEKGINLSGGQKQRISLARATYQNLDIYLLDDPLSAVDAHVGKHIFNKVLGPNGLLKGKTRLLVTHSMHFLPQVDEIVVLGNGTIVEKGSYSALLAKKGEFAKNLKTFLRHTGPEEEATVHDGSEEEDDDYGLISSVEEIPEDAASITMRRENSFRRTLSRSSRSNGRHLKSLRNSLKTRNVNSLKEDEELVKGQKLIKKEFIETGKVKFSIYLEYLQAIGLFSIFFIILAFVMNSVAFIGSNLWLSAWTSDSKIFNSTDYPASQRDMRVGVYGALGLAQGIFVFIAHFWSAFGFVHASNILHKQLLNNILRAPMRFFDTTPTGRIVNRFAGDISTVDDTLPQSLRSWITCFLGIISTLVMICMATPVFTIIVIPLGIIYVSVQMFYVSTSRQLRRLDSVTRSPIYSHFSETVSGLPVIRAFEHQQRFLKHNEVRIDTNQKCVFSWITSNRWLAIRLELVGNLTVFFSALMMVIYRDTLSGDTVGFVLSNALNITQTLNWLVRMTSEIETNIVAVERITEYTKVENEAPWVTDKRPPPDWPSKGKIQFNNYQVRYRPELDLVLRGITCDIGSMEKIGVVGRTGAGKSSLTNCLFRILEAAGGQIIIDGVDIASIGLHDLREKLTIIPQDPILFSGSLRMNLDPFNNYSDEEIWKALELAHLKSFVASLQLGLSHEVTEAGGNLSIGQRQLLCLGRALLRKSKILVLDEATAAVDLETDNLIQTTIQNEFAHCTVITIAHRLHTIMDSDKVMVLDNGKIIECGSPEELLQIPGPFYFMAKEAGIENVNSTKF
Text: as §1
BSEP and MRP2 inhibition was studied in membrane vesicles isolated from sf9 insect cells overexpressing the respective transporters. Vesicular transport inhibition assays used test compounds incubated with membrane vesicle preparations (total protein: 50 µg/well) and probe substrates, taurocholate (2 µM) for BSEP or Estradiol-17-beta-glucuronide (0.2 µM) for MRP2, in the absence or presence of ATP. Reaction mixtures were preincubated for 15 min at 37°C. Reactions were started by the addition of 25 µL of 12 mM MgATP or assay buffer (for background controls), preincubated separately. Reactions were stopped after 5 min by the addition of 200 µL of ice-cold washing buffer and immediate filtration via glass fiber filters mounted to a 96-well plate (filter plate). The filters were washed, dried and the amount of substrate inside the filtered vesicles determined by liquid scintillation. Cyclosporin A (20 µM) or benzbromarone (100 µM), for BSEP or MRP2, respectively, were used as positive control inhibitors. Control membranes lacking transporter expression were used as negative control.
as §2

[1] = CHO cells, Fluo 3, mean ± SD of 3 independent studies in duplicate, tested 0.14–100 µM, read-out: OATP1B3 IC50

IC50 (OATP1B3) [µM] | IC50 (Pgp) [µM] | IC50 (MRP2) [µM] | IC50 (OATP1B3; [1]) [µM] | Compound
44.6 ± 23.8 | > 100 | ~75 | – | COC(c1ccccc1)(c1ccccc1)[C@H](Oc1nc(C)cc(C)n1)C(=O)O [ambrisentan]
– | > 100 | > 100 | 5.2 ± 2.1 | COc1ccccc1Oc1c(NS(=O)(=O)c2ccc(C(C)(C)C)cc2)nc(-c2ncccn2)nc1OCCO [bosentan]
– | 64 ± 15 | > 100 | 2.1 ± 0.3 | CCCNS(=O)(=O)Nc1ncnc(OCCOc2ncc(Br)cn2)c1-c1ccc(Br)cc1 [macitentan]
